In patent publication US7202035B2, “Genetic markers for skatole metabolism” (University of Guelph, priority 1999, dated 2007):
“And” between values parts separate entries of the source, which are not always exact repeats. Identical values can stand only once. “Also recorded” adds a separate entry of the source.

Key:
[1] = rat liver microsomes incubated with 3-MI; cited from earlier work
[2] = Microsomal incubations of 3MI: production of 3MI metabolites by pig liver microsomes (HPLC); assay type: in vitro ADME; details: for Maximum rate of production: highest of 30 pig liver microsome samples; for Minimum rate of production: lowest of 30 pig liver microsome samples; for Rate of Production (pmol/mg prot./min) ±SD: metabolite formed from 0.4 mM 3MI, mean ±SD, n = 30
Protocol: Preparation of microsomes.
Microsomal incubations. […] C. (production of metabolites was determined to be linear over a range of 10 to 40 min). Incubation volumes were 0.5 ml. Reactions were started by the addition of NADPH after 3-minute preincubation periods at 37° C., and stopped with 0.5 ml of ice-cold acetonitrile. Incubations of all 30 samples were run in duplicate and for control incubations NADPH was omitted. […] A 50 μl aliquot of the clear supernatant was analyzed by high-performance liquid chromatography (HPLC).
Analytical chromatography. […] Absorbance was monitored at 250 nm; fluorescence was monitored at excitation and emission wavelengths of 286 and 350 nm, respectively. HPLC analysis for 3MI metabolites was conducted immediately after the incubations. Metabolites were identified by comparison of retention times, and co-injection of standards (spiking the metabolite mixture with authentic standards).

aldehyde oxidase [3] = assay: Hepatic aldehyde oxidase activity measured as formation of HMOI from HMI by cytosol; assay type: in vitro ADME, pig
From the text: Preparation of porcine liver cytosol.
Chromatographic analysis. […] Absorbance was monitored at 250 nm.

[4] = Skatole level in backfat of CYP2A6 deletion mutant and wild type pigs (colorimetric assay); assay type: in vivo, pig; details: sample with CYP2A6 deletion mutation
Protocol: A backfat sample was collected at the midline point of 11th rib and frozen at −20° C. until assayed for skatole. The skatole content was measured with a colorimetric assay, according to the method described by Gonzalo et al. (2000).

[5] = Measurement of 3MI fat content in backfat (colorimetric assay); assay type: in vivo, pig
From the text: Measurement of 3MI fat content. For the quantitation of the 3MI fat content, a sample of backfat was taken from each pig and its 3MI content measured with a colorimetric assay (Mortensen and Sorensen, 1984). All analysis were done in duplicate.

[6] = Stability of isolated UV-1 in acetonitrile:water solution at room temperature (HPLC at 7-day intervals); assay type: physicochemical
Protocol: UV Spectroscopy. The UV spectrum of the metabolites identified on the basis of their retention times on HPLC (HMOI, 3MOI, I3C, and 2-aminoacetophenone) were identical to those of authentic standards. Spectra of metabolites were recorded using water as solvent, and the wavelengths of maximal absorption were as follows: HMOI: λmax (nm): 208, 253; 3MOI: λmax (nm): 205, 252; I3C: λmax (nm): 221, 278; 2-aminoacetophenone: λmax (nm): 228, 257. The UV spectrum of 3-methylindole was: λmax (nm): 224, 281. The UV spectrum of UV-1 metabolite was: λmax (nm): 204, 238. […] Isolated UV-1 was kept in acetonitrile:water solution at room temperature and the solution was analyzed by HPLC at 7-day intervals for 6 weeks. After 6 weeks only about 25% of the original compound remained and it was observed that UV-1 was converted into 3MOI.

aldehyde oxidase [7] = details: up to 1.0 mM in the assay mixture
aldehyde oxidase [8] = assay: in vitro; details: male, pig, porcine liver cytosol, pH 7.4, probe HMI (conversion to HMOI)

SMILES	Maximum rate of production [2] [pmol/mg prot./min]	Minimum rate of production [2] [pmol/mg prot./min]	Rate of Production (pmol/mg prot./min) ±SD ([2]; pig liver microsomes)	Percentage of all 3MI metabolites produced (average) ([2]; pig liver microsomes) [%]	also measured
NCC(=O)c1ccccc1 [2-aminoacetophenone]	12.7	3.4	7.8 ± 2.4 pmol/mg prot./min	0.5	Percentage of the metabolites formed [1]: 12%
O=CNCC(=O)c1ccccc1 [2-formamidoacetophenone]					Percentage of the metabolites formed [1]: 33%
CC1(O)C(=O)Nc2ccccc21 (centres unmarked) [3-hydroxy-3-methyloxindole]	516.5	118.9	272.4 ± 91.6 pmol/mg prot./min	18.5	Mean aldehyde oxidase activity (nmol HMOI/mg prot./min) (aldehyde oxidase [3]; High accumulator pigs, n 7): 0.80 nmol HMOI/mg prot./min; Mean aldehyde oxidase activity (nmol HMOI/mg prot./min) (aldehyde oxidase [3]; Low accumulator pigs, n 8): 2.73 nmol HMOI/mg prot./min; Mean aldehyde oxidase activity (nmol HMOI/mg prot./min) (aldehyde oxidase [3]; Moderate accumulator pigs, n 15): 1.40 nmol HMOI/mg prot./min; AO activity, mean (aldehyde oxidase [3]; all samples, 30 pigs): 1.27 nmol HMOI/mg protein/min; AO activity, range (aldehyde oxidase [3]; all samples, 30 pigs): 0.25 to 3.53 nmol HMOI/mg protein/min
Cc1c[nH]c2ccccc12 [3-methylindole]					Skatole level in fat versus wild type samples [4]: much higher; Mean 3-methylindole content (mg/kg) in fat ([5]; High accumulator pigs (0.2 mg/kg or more), n 7): 0.24 mg/kg; Mean 3-methylindole content (mg/kg) in fat ([5]; Low accumulator pigs (0.1 mg/kg or less), n 8): 0.09 mg/kg; Mean 3-methylindole content (mg/kg) in fat ([5]; Moderate accumulator pigs (0.11–0.19 mg/kg), n 15): 0.15 mg/kg; 3MI fat content, mean ([5]; all samples, 30 pigs): 0.15 mg/kg; 3MI fat content, range ([5]; all samples, 30 pigs): 0.07 to 0.3 mg/kg
CC1C(=O)Nc2ccccc21 (centres unmarked) [3-methyloxindole]	700.8	234.4	420.9 ± 118.1 pmol/mg prot./min	27.9	Percentage of the metabolites formed [1]: 5%
Cc1c[nH]c2ccc(O)cc12 [5-OH-3-methylindole]	27.3	0.7	5.1 ± 5.8 pmol/mg prot./min	0.3	Rate of Production (pmol/mg prot./min) ±SD ([2]; pig liver microsomes, listed as 5-OH-3MI): 5.1 pmol/mg prot./min
Cc1c[nH]c2cc(O)ccc12 [6-OH-3-methylindole, 6-OH-3-methylindole]	213.7		58.4 ± 47.2 pmol/mg prot./min	4.9	Average rate of production relative to the 5 isomer ([2]; 6-OH-3MI versus 5-OH-3MI, pig liver microsomes): approximately eleven times greater
OCc1c[nH]c2ccccc12 [Indole-3-carbinol, indole-3-carbinol]	85.7	12.1	37.1 ± 15.8 pmol/mg prot./min		
CC1(O)C=Nc2ccccc21 (centres unmarked) [UV-1, 3-hydroxy-3-methylindolenine]	1556.3	180.5	750.7 pmol/mg prot./min and 750.7 ± 414.5 pmol/mg prot./min	45.1	Stability (in words) [6]: unstable compound; Original compound remaining ([6]; acetonitrile:water solution, room temperature, after 6 weeks, converted into 3MOI): about 25%
Oc1ncnc2[nH]ncc12 [allopurinol]					Effect on the conversion of HMI to HMOI (aldehyde oxidase [7]): did not affect; also recorded: lack of inhibition
CCN(CC)CCCC(C)Nc1c2ccc(Cl)cc2nc2ccc(OC)cc12 (centres unmarked) [quinacrine]					activity at 10 min, 50 µM (aldehyde oxidase [8]): 75.5%; activity at 10 min, 1 mM (aldehyde oxidase [8]): 43.4%
